This passage reports Activity and EC50 results from ChEMBL document CHEMBL5634185, “Drymariamides A-J, Antiadipogenic Cyclopeptides Incorporating Noncanonical Amino Acids from Drymaria cordata” (J Nat Prod, 2024).

In data set [1] the test system is 3T3-L1. In words: Cytotoxicity against mouse 3T3-L1 cells assessed as cell viability incubated for 48 hrs by MTT assay. The format is toxicity, cell-based. Conditions: 3t3-l1, 48 h. (In general: Tetrazolium dyes change colour on reduction, which living cells bring about.)
For data set [2], the system named is 3T3-L1. The data set can be described thus: Anti-adipogenic activity against mouse 3T3-L1 cells assessed as decrease in triglyceride level at 1 to 100 uM by Oil Red O staining based analysis. It is filed as functional, cell-based. Conditions: dose 1-100 µM.
The subject of data set [3] is 3T3-L1. In words: Anti-adipogenic activity against mouse 3T3-L1 cells assessed as decrease in triglyceride level by Oil Red O staining based analysis. The format is functional, cell-based.

Activity calls are given as the source filed them. No cut-off for these calls is given here. Starred links: 1 amine or outer side, 2 acyl side, 3 side chain; linkers in the order of their positions; H or OH if unused. Non-standard residues stand in square brackets, D forms with d. Residues, ends and D or L forms follow the SMILES beside them. X1 = C[C@@]12Nc3ccccc3[C@]1(O)C[C@@H](C(=O)[*:2])N2[*:1]; Kyn = Nc1ccccc1C(=O)C[C@H](N)C(=O)O

As for `CC(C)C[C@@H]1NC(=O)[C@@H]2CCCN2C(=O)[C@H](Cc2ccccc2)NC(=O)[C@@H]2CCCN2C(=O)[C@H](C)NC(=O)[C@@H]2CCCN2C(=O)[C@H](Cc2ccc(O)cc2)NC1=O` (cyclo(APFPLYP)), the Activity entry with 3T3-L1 [1] is given as “Non-Toxic”. Besides, the result with 3T3-L1 [2] was Active.

As to `CC(C)C[C@@H]1NC(=O)[C@@H]2CCCN2C(=O)[C@H](Cc2ccccc2)NC(=O)[C@@H]2CCCN2C(=O)[C@H](C)NC(=O)[C@H](Cc2ccc(O)cc2)NC(=O)[C@@H]2CCCN2C(=O)[C@H](Cc2ccc(O)cc2)NC1=O` (cyclo(APFPLYPY)), in the data set with 3T3-L1 [1], the Activity result is “Non-Toxic”. Further, in the data set on 3T3-L1 [2], the outcome was Active.

Take `CC[C@H](C)[C@@H]1NC(=O)[C@H](Cc2c[nH]c3ccccc23)NC(=O)[C@@H]2CCCN2C(=O)CNC(=O)[C@H](Cc2ccc(O)cc2)NC(=O)CNC(=O)[C@H](C(C)C)NC(=O)[C@H](C)NC1=O` (cyclo(AVGYGPWI)): in the data set with 3T3-L1 [1], the Activity entry is listed as “Non-Toxic”. The result with 3T3-L1 [2] was Active.

A word on the EC50: it is the concentration that produces a half-maximal response. In the case of `CC(C)C[C@@H]1NC(=O)[C@H](Cc2ccc(O)cc2)NC(=O)[C@@H]2CCCN2C(=O)[C@H](Cc2ccccc2)NC(=O)CNC(=O)[C@@H]2CCCN2C1=O` (cyclo(FPYLPG)), in the data set with 3T3-L1 [3], the EC50 was 1170 nM. Further, the Activity entry in the data set on 3T3-L1 [1] is given as “Non-Toxic”. Further, the result in the data set on 3T3-L1 [2] was Active.

Regarding `O=C1CNC(=O)[C@@H]2CCCN2C(=O)[C@H](Cc2c[nH]c3ccccc23)NC(=O)[C@H](Cc2ccc(O)cc2)NC(=O)[C@@H]2CCCN2C(=O)[C@H](Cc2ccccc2)N1` (cyclo(FPYWPG)), the Activity entry with 3T3-L1 [1] is recorded as “Non-Toxic”. Besides, in the data set with 3T3-L1 [2], the outcome was Active.

As for `Nc1ccccc1C(=O)C[C@@H]1NC(=O)[C@H](Cc2ccc(O)cc2)NC(=O)[C@@H]2CCCN2C(=O)[C@H](Cc2ccccc2)NC(=O)CNC(=O)[C@@H]2CCCN2C1=O` (cyclo(FPY[Kyn]PG)), the Activity result with 3T3-L1 [1] is listed as “Non-Toxic”. Besides, the outcome in the data set with 3T3-L1 [2] was Active.

As to `C[C@@]12Nc3ccccc3[C@]1(O)C[C@H]1C(=O)N3CCC[C@H]3C(=O)NCC(=O)N[C@@H](Cc3ccccc3)C(=O)N3CCC[C@H]3C(=O)N[C@@H](Cc3ccc(O)cc3)C(=O)N12` (cyclo(FPY[X1]PG)), the Activity entry with 3T3-L1 [1] is recorded as “Non-Toxic”. For the same compound, in the data set on 3T3-L1 [2], the outcome was Active.

Take `O=C1CNC(=O)[C@@H]2CCCN2C(=O)[C@H](Cc2c[nH]c3ccccc23)NC(=O)[C@H](Cc2ccc(O)cc2)NC(=O)[C@@H]2CCCN2C(=O)CN1` (cyclo(GGPYWP)): the Activity entry in the data set on 3T3-L1 [1] is recorded as “Non-Toxic”. For the same compound, in the data set on 3T3-L1 [2], the result was Active.

As to `CC(C)C[C@@H]1NC(=O)[C@H](CO)NC(=O)[C@@H]2CCCN2C(=O)[C@H](CC(C)C)NC(=O)[C@@H]2CCCN2C(=O)[C@H](CO)NC(=O)CNC(=O)[C@H](Cc2c[nH]c3ccccc23)NC1=O` (cyclo(GSPLPSLW)), the Activity result in the data set with 3T3-L1 [1] is reported as “Non-Toxic”. The result in the data set with 3T3-L1 [2] was Active.

For the compound `CC(C)C[C@@H]1NC(=O)[C@@H]2CCCN2C(=O)[C@H](CO)NC(=O)CNC(=O)[C@@H]2C[C@@]3(O)c4ccccc4N[C@@]3(C)N2C(=O)[C@H](CC(C)C)NC(=O)[C@H](CO)NC(=O)[C@@H]2CCCN2C1=O` (cyclo(GSPLPSL[X1])), in the data set with 3T3-L1 [1], the Activity result is recorded as “Non-Toxic”. For the same compound, the result with 3T3-L1 [2] was Active.
